Experimental data as given in US20260335323A1, “CHIMERIC MOLECULE” (UCL Business Ltd, priority 2023, published 2026).

What was measured:
Mfn2 = assay: Western blot, Mfn2 degradation in MEF WT; type: cell-based, mouse; details: MEF WT
Protocol: (§1) FIG. 6. ULKTACs rely on ULK1 for the redirection of autophagy components to mitochondria and subsequent mitophagic degradation (A) Western blot of mouse embryonic fibroblasts (MEF) WT and MEF ULK1/2^−/− treated with 1 mM ULKTACs, 5 mM CCCP or both and probed for ULK1, Mfn2 and Actin—quantification of the relative intensity of Mfn2 shown in (B), normalised to Actin. Representative immunofluorescence of MEF WT (C) and MEF ULK1/2^−/− (D) treated with 5 mM CCCP, 1 mM ULKTACs or both and immunostained for Alexa 488 ATP5a and Alexa 647 LC3B. Quantification of the colocalised LC3 to ATP5a spot area shown in WT vs ULK1/2^−/− treated MEF cells shown in (E). Data shown are mean±SEM, n=3, *p<0.05, ** p<0.01, *** p<0.001, Two-way ANOVA with Tukey's multiple comparisons test.
Cells were homogenised in protein lysis buffer consisting of 0.1 M Tris pH 8.0, 0.1 M NaCl, 5% glycerol, IGEPAL® CA-630 (#18896. Sigma-Aldrich) and 5 mM EDTA, 0.1 M N-ethyl maleimide (ThermoFisher, #23030) and protease inhibitor (Cell Signalling Technologies, #5871). Protein concentrations were determined using the BCA assay to ensure equal loading. […] The membranes were immunoblotted with primary antibodies, overnight at 4° C. ULK1 (D8H5) Rabbit mAb (#0854) [1:1000], Phospho-ULK1 (Ser 317) Rabbit antibody (#37762) [1:1000], LC3B Rabbit antibody (#2775) [1:1000], TOM20 (D8T4N) Rabbit mAb (#42406) [1:1000] and, Phospho-Ubiquitin (Ser 65) (E2J6T) Rabbit mAb (#62082) [1:500] were obtained from Cell Signalling Technologies. Recombinant Anti-Vinculin Rabbit antibody (EPR8185) (#ab129002) [1:5000] and Anti-Mitofusin2 mouse antibody (6A8) (#ab56889) [1:1000] were purchased from Abcam. Anti-Actin mouse monoclonal antibody (#A1978) [1:1000] and Anti-rabbit p62/SQSTM1 (#P0067) [1:1000], were purchased from Sigma-Aldrich. Mono- and polyubiquitinylated conjugates monoclonal antibody (FK2) (BML-PW8810-0100) [1:500] was purchased from Enzo Life Sciences. Anti BRD4 (E2A7X) rabbit monoclonal antibody (#13440), Anti c-MYC (D84C12) rabbit monoclonal antibody (#5605) [1:1000], Anti GAPDH (D4C6R) mouse monoclonal antibody (#97166) [1:1000], Anti Max (S20) rabbit monoclonal antibody (#4739) [1:1000] were purchased from Cell Signalling Technologies. Anti Phospho-CHK1 (Ser 345) rabbit monoclonal antibody (#2341) [1:1000], Anti gamma-H2AX (Ser 139) rabbit monoclonal antibody (#2577) [1:1000] were obtained from Cell Signalling Technologies, Anti RPA32/RPA2 (phospho S4/S8) rabbit monoclonal antibody (ab87277) [1:1000] were obtained from Abcam.
Membranes were then incubated with horseradish peroxidase (HRP)-conjugated secondary antibodies (Rabbit #7074 and Mouse #7076) purchased from Cell Signalling Technologies for 1 hour and the HRP signal was detected using EZ-ECL Enhanced Chemiluminescence Detection Kit for HRP (#20-500-500, Sartorius), and imaged with an Alliance Q9 Advanced (UVITec). Where required, membranes were stripped with mild stripping buffer consisting of 0.2 M glycine, 3.47 mM SDS, 1% Tween 20, pH 2.2, blocked for 1 hour with TBS-T+3% BSA and re-probed with primary antibodies.
Therefore, we conclude that NZ-65 and NZ-66 are novel ULKTAC molecules that initiate the recruitment of ULK1 to mitochondria, leading to an increase in local ULK1 activity, the formation of an autophagosome and mitophagy.

LC3 = assay: ATP5a/LC3 co-localisation immunofluorescence in MEF WT; type: cell-based, mouse
Protocol: as §1
For TOM20/ULK1 immunofluorescence, cells were seeded in a 384 well PerkinElmer CellCarrier Ultra plate 24 hours prior to treatment with compounds. Cells were treated for 18 hours after which they were fixed with 4% paraformaldehyde (PFA) in phosphate buffered saline (PBS) and blocked with 10% FBS and 0.1% Triton in PBS. Plates were incubated at 4° C. overnight, with 1:400 mouse anti-TOM20 (Santa Cruz, #sc-17764) and 1:400 rabbit anti-ULK1 (Cell Signalling Technologies, #0854). […]

H1299 cells = assay: Colony formation assay, H1299; type: cell-based, human
Protocol: A549 and H1299 cells were seeded in 12 well plates at approximately 100 cells per well. In Example 8, wells were treated with DMSO, (+)-JQ1 or NZ-147. In Example 9, cells were treated with DMSO or NZ-175. Colonies were allowed to form over 120 h. Cells were fixed and stained with crystal violet staining solution, prepared in 70% ethanol.
A colony formation assay was performed in A549 and H1299 cells, which were treated with DMSO, (+)-JQ1 or NZ-147 at 100 nM for 72 hours and stained with crystal violet (FIG. 10A).
A colony formation assay was performed in A549 and H1299 cells, which were treated with DMSO or NZ-175 at 100 nM for 72 hours and stained with crystal violet (FIG. 16A).

| SMILES | degradation of Mfn2 (Mfn2; co-treatment with CCCP) | degradation of Mfn2 (Mfn2; compound alone) | co-localisation of ATP5a with LC3 (LC3) | colony formation (H1299 cells; H1299, 100 nM, 72 hours) | cell proliferation (H1299 cells; c-MYC-amplified cell line H1299) |
| --- | --- | --- | --- | --- | --- |
| O=C(Nc1cc(C(F)(F)F)cc(C(F)(F)F)c1)N[C@@H](C(=O)Nc1ccc(F)cc1F)c1ccc(OCc2cn(CCOCCOCCNC(=O)C(=O)c3c(-c4ccccc4)[nH]c4ccccc34)nn2)cc1 [NZ-65, (R)-2-(3-(3,5-bis(trifluoromethyl)phenyl)ureido)-N-(2,4-difluorophenyl)-2-(4-((1-(2-(2-(2-(2-oxo-2-(2-phenyl-1H-indol-3-yl)acetamido)ethoxy)ethoxy)ethyl)-1H-1,2,3-triazol-4-yl)methoxy)phenyl) acetamide] | further enhanced by co-treatment with CCCP | degradation of Mfn2 | increase in co-localisation |  |  |
| Cc1sc2c(c1C)C(c1ccc(Cl)cc1)=N[C@@H](CC(=O)NCCOCCOCCOCCn1cc(COc3ccc([C@@H](NC(=O)Nc4cc(C(F)(F)F)cc(C(F)(F)F)c4)C(=O)Nc4ccc(F)cc4F)cc3)nn1)c1nnc(C)n1-2 [NZ-147, (R)-2-(3-(3,5-bis(trifluoromethyl)phenyl)ureido)-2-(4-((1-(1-((S)-4-(4-chlorophenyl)-2,3,9-trimethyl-6H-thieno[3,2-f][1,2,4]triazolo[4,3-a][1,4]diazepin-6-yl)-2-oxo-6,9, 12-trioxa-3-azatetradecan-14-yl)-1H-1,2,3-triazol-4-yl)methoxy)phenyl)-N-(2,4-difluorophenyl) acetamide] |  |  |  | Fewest colonies formed | reduced cell proliferation, exemplified further in the c-MYC-amplified cell line H1299 |
| O=C(Nc1cc(C(F)(F)F)cc(C(F)(F)F)c1)N[C@@H](C(=O)Nc1ccc(F)cc1F)c1ccc(OCc2cn(CCCCCCNC(=O)C(=O)c3c(-c4ccccc4)[nH]c4ccccc34)nn2)cc1 [NZ-66, (R)-2-(3-(3,5-bis(trifluoromethyl)phenyl)ureido)-N-(2,4-difluorophenyl)-2-(4-((1-(6-(2-oxo-2-(2-phenyl-1H-indol-3-yl)acetamido)hexyl)-1H-1,2,3-triazol-4-yl)methoxy)phenyl) acetamide] | further enhanced by co-treatment with CCCP | degradation of Mfn2 | increase in co-localisation |  |  |
